Test results as given in patent EP2073012A1, “Method for the isolation and identification of ADP-ribosylated molecules” (Fondazione Telethon, priority 2007, dated 2009).

Legend:
[1] = tested on: BAL9; conditions: cited from earlier work
[2] = target: T1, Af1521 (Archaeoglobus fulgidus, UniProt O28751); conditions: cited from earlier work
T1 sequence (O28751 1-192): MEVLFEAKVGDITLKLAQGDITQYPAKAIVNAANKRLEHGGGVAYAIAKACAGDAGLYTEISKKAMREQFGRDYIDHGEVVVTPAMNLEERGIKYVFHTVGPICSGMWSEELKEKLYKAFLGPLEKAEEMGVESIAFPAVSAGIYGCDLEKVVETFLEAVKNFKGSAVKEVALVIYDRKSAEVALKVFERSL

[3] = target: T2, His6-mAf1521 (Archaeoglobus fulgidus, UniProt O28751); test: Pull-down displacement assay: free ADP-ribose added after pull-down of [32P]-ADP-ribosylated β subunit by resin-bound His6-mAf1521; assay type: binding
T2 construct: made in house
T2 sequence (O28751 1-192): T1 sequence (O28751 1-192)
Protocol: Samples (10 µg plasma membranes) were incubated with 50 µl ADP-ribosylation buffer (50 mM potassium phosphate buffer (PFB), pH 7.4, 5 mM MgCl2, 4 mM dithiothreitol (DTT), 10 µM GTPγS, 700 µM β-NAD^+ and 4.5 µCi [^32P]-NAD (specific activity: 1,000 Ci/mmol)) at 37 °C for 60 min, unless otherwise specified. Under these conditions, 10% of the total β was mono-ADP-ribosylated; to obtain maximal modification (80%-100% of total β mono-ADP-ribosylated), the incubation was prolonged to 12 h at 30 °C. The in-vitro PT-catalyzed ADP-ribosylation was performed as previously described^34, using either total membranes or purified proteins (β-action or SLC25A5; Sigma and Abnova Corporation, respectively). […]
Plasma membranes (10 µg for each sample) were ADP-ribosylated as described above, washed with 50 mM PFB, pH 7.4, to remove unbound NAD, and then centrifuged at 16.000x g for 15 min at 4 °C. […] Then the resin was washed three times with RIPA buffer plus 10 mM imidazole, and finally both the washed resin and the unbound fraction (one-eight of the total volume) were diluted in 50 µl Laemmli buffer, boiled and analysed by 10% SDS-PAGE. […] The gels underwent colloidal Coomassie blue (blue code, Pierce) or silver staining, and the bands of interest were analysed by MALDI-TOF-MS. […]

| Molecule | fold lower affinity than free ADP-ribose [1] [fold] | fold lower affinity than free ADP-ribose [2] [fold] | excess of ADP-ribose able to displace the immobilized ADP-ribosylated β subunit from the His6-mAf1521-resin complex ([3]; molar excess over bound β subunit) [fold] | ADP-ribose concentration to displace all of the His6-mAf1521-bound [32P]-ADP-ribosylated β subunit ([3]; ∼400 pmol ADP-ribose against ∼4 pmol bound β subunit) [µM] |
| --- | --- | --- | --- | --- |
| NC(=O)c1ccc[n+]([C@@H]2O[C@H](COP(=O)([O-])OP(=O)(O)OC[C@H]3O[C@@H](n4cnc5c(N)ncnc54)[C@H](O)[C@@H]3O)[C@@H](O)[C@H]2O)c1 [NAD] | > 1000 | > 1000 | – | – |
| Nc1ncnc2c1ncn2[C@@H]1O[C@H](CO)[C@@H](O)[C@H]1O [adenosine] | > 1000 | > 1000 | – | – |
| ADP-ribose | – | – | ~100 | 100 |
